The source of these data is US6403614B1, “Benzothiophenes” (Eli Lilly and Company, priority 1997, dated 2002).

What all share (format): in vivo, Sprague Dawley rats
The test system of assay [1] is ovariectomized rats. As to the kind of experiment: Four Day Ovariectomized Rat Model: Serum Cholesterol Analysis. The settings on record: OVX rats, orally administered at 0.1 mg/kg/day, four days. From the text:
(§1) Estrogenicity: Four Day Ovariectomized Rat Model
(§2) Seventy-five day old female Sprague Dawley rats (weight range of 225 g-275 g) were obtained from Charles River Laboratories (Portage, Mich.). The animals were either bilaterally ovariectomized (OVX) or exposed to a Sham surgical procedure at Charles River Laboratories, and then shipped after one week. Upon arrival, these rats were housed in metal hanging cases in groups of three or four animals per cage, and had ad libitum access to food (Teklad diet, TD 89222, 0.5% calcium, 0.4% phosphorous; Madison, Wis.) and water. Room temperature was maintained at 22.2° C.±1.7° C. with a minimum relative humidity of 40%. The photoperiod in the room was twelve hours light and twelve hours dark. […]
(§3) After a one-week acclimation period (two weeks post-OVX), daily dosing with test compound and 17α-ethynylestradiol was initiated. […] The animals were then sacrificed by asphyxiation with CO2, the uterus was removed through a midline incision, and a wet uterine weight was determined.
The blood samples, collected as described above, were allowed to clot at room temperature for two hours, and serum was obtained following centrifugation for ten minutes at 3000 rpm. Serum cholesterol was determined using a high-performance cholesterol assay (Boehringer Mannheim Diagnostics, Indianapolis, Ind.). […] Cholesterol concentration was then calculated against a standard curve.

The test system of assay [2] is ovariectomized rats. As to the kind of experiment: Four Day Ovariectomized Rat Model: wet uterine weight. To be noted: OVX rats, orally administered at 0.1 mg/kg/day, four days, versus untreated ovariectomized animals.
Source text: as §1
Seventy-five day old female Sprague Dawley rats (weight range of 225 g-275 g) were obtained from Charles River Laboratories (Portage, Mich.). The animals were either bilaterally ovariectomized (OVX) or exposed to a Sham surgical procedure at Charles River Laboratories, and then shipped after one week. Upon arrival, these rats were housed in metal hanging cases in groups of three or four animals per cage, and had ad libitum access to food (Teklad diet, TD 89222, 0.5% calcium, 0.4% phosphorous; Madison, Wis.) and water. Room temperature was maintained at 22.2° C.±1.7° C. with a minimum relative humidity of 40%. The photoperiod in the room was twelve hours light and twelve hours dark. Comparative data were obtained between untreated ovariectomized rats, ovariectomized rats treated with 17α-ethynylestradiol (EE2), and ovariectomized rats treated with representative compounds of the present invention.
After a one-week acclimation period (two weeks post-OVX), daily dosing with test compound and 17α-ethynylestradiol was initiated. The test compounds or 17α-ethynylestradiol (Sigma Chemical Co., St. Louis, Mo.) were given orally, unless otherwise stated, as a suspension in 20% cyclodextrin (CDX). […] The animals were then sacrificed by asphyxiation with CO2, the uterus was removed through a midline incision, and a wet uterine weight was determined.

Assay [3] deals with ovariectomized rats. As to the kind of experiment: Four Day Ovariectomized Rat Model: Uterine Eosinophil Peroxidase (EPO) Assay. The settings on record: OVX rats, oral daily for four days.
Source text: as §1, §2, §3
Uteri were kept at 4° C. until time of enzymatic analysis. […] Upon addition of 0.01% hydrogen peroxide and […] o-phenylenediamine (final concentrations) in Tris buffer, the increase in absorbance was monitored for one minute at 450 nm. […] The maximal velocity of a fifteen second interval was determined over the initial, linear portion of the reaction curve.

Assay [4] deals with ovariectomized rats. As to the kind of experiment: Bone Sparing: Five Week Ovariectomized Rat Model, femur X-ray Bone Assay. To be noted: OVX rats, oral gavage daily for 35 days, dose of 0.01 mg/kg. From the text:
Seventy-five day old female Sprague Dawley rats (weight range of 275 g-350 g) were obtained from Charles River Laboratories (Portage, Mich.). The animals were either bilaterally ovariectomized (OVX) or exposed to a Sham surgical procedure at Charles River Laboratories, and then shipped the day following surgery. Upon arrival, these rats were housed in metal hanging cases in groups of three or four animals per cage, and had ad libitum access to food (Teklad diet, TD 89222, 0.5% calcium, 0.4% phosphorous; Madison, Wis.) and water. Room temperature was maintained at 22.2° C.±1.7° C. with a minimum relative humidity of 40%. The photoperiod in the room was twelve hours light and twelve hours dark. Test compound preparation was the same as that described in the Estrogenicty assay above. After a one day acclimation period (two days post-OVX), dosing with test compounds was initiated. Oral gavages 20% CDX, representative compound of the invention (0.01 to 10 mg/kg), or 17α-ethynylestradiol (100 μg/kg) were delivered daily for 35 consecutive days. On the evening following the final dose, the animals were fasted. The next morning the animals were aneshetized with a mixture of Ketaset® and Rompun® (67 and 6.7 mg/kg respectively). […] Quantitation was achieved by measuring the total number of pixels in a standard region of interest proximal to the growth plate, over a gray scale range of zero to 60.

With `C#C[C@]1(O)CC[C@H]2[C@@H]3CCc4cc(O)ccc4[C@H]3CC[C@@]21C` [EE2, 17α-ethynylestradiol], in assay [1], the serum cholesterol result is reported as “caused a decrease in serum cholesterol”. Also, in assay [2], the uterine weight entry is on record as “substantially greater than the uterine weight of untreated ovariectomized test animals”. In addition, in assay [3], the “eosinophil infiltration (uterine EPO)” value was “substantial, expected increase in eosinophil infiltration”.
Regarding `CCOCOc1ccc(-c2sc3cc(OCOCC)ccc3c2C(=O)c2ccc(OCCN3CCCCC3)cc2)cc1` [Example 3, 2-(4-[Ethoxymethoxy]phenyl)-3-(4-[(2-Piperidin-1-yl)ethoxy]benzoyl)-6-Ethoxymethoxybenzo[b]thiophene], the “protection of the femur from bone loss (X-ray evaluation)” value in assay [4] was determined as 9.1%.
